Test results reported in patent US20220395500A1, “SMALL MOLECULE ACTIVATORS OF INTERFERON REGULATORY FACTOR 3 AND METHODS OF USE THEREOF” (Neuralexo, Inc., priority 2020, published 2022).
Like-named read-outs stand apart in the source and are kept apart here. Each block holds one molecule with its values, some of them ahead of it.

Columns and labels:
[1] = system: NF-κB-SEAP reporter in THP1-Dual cells; assay: THP1-Dual NF-κB-SEAP reporter counterscreen; assay type: cell-based, human; conditions: Homo sapiens, THP1-Dual, read-out: THP1 NFkB EC50
Experimental: (§1) THP1 Dual (InvivoGen) cell suspensions were cultured in RPMI 1640 (Hyclone, Logan, Utah) supplemented with 10% fetal bovine serum (Hyclone), 100 U/mL Normocin (Invivogen), and 50 U/mL PenStrep (Gibco, Dublin, Ireland) between a density of 7·10^5-2·10^6 cells/mL. Every other passage, media was supplemented with 5 U/mL Blasticidin and 100 U/mL Zeocin to maintain the expression constructs. White, flat-bottom 384-well plates (Greiner, Kremsmunster, Austria, 781080) were seeded with 2.5·10^4 cells/well in a total of 50 μL media containing 5 ng/mL phorbolmyristic acid (PMA) using a Matrix WellMate (Thermo Scientific) dispenser. After 48 hours of incubation at 37° C., media was removed using a BioTek ELx405 CW plate washer set to aspirate and wash each well three times with 65 μL 1×PBS. Plates were reloaded with 50 μL media without PMA and treatments added. Lipopolysaccharide in dimethylsulfoxide (DMSO) was transferred to control wells using a HP D300 microdispenser to a final concentration of 313 ng/mL. Compounds from chemical library plates were copied using a Sciclone (Caliper LifeSciences) mounted with a 384-pin transfer tool to obtain a final concentration of 10 μM. After incubation with treatments for 24 hours, 10 μL of supernatant media from each well was transferred into a white, flat-bottom 384-well plate for luminescence readout and a black-walled, clear flat-bottom 384-well plate for absorbance readout.
(§2) Specifically, to enable screening of novel chemical entities (NCEs) in a larger screening effort, a robust high-throughput cell-based assay system for primary hit identification of ISRE activators based on the above-mentioned target validation was desired. Human ISRE activity was verified using a THP-1 monocyte line containing the NF-κB-SEAP and IRF-Lucia luciferase dual reporter (THP1-Dual; Invivogen) that features two reporter genes, SEAP (secreted embryonic alkaline phosphatase) and Lucia luciferase, thereby enabling the simultaneous study of the NF-κB and IRF signalling pathways. The Lucia luciferase reporter is under the control of an ISG54 (interferon-stimulated gene) minimal promoter in conjunction with five IFN-stimulated response elements. The SEAP gene is driven by an IFN-β minimal promoter fused to five copies of the NF-κB consensus transcriptional response element and three copies of the c-Rel binding site. Both reporter proteins are readily measurable in the cell culture supernatant when using QUANTI-LUC™ and QUANTI-Blue SEAP detection reagents.
Using the experimental design and data analysis outlined above, optimized assay conditions were obtained. The responsiveness of the human THP-1 Dual cell line was evaluated in an array of assay conditions to obtain sensitive and reproducible results for the activation of IRF and NF-κB reporters. An optimal plating density and differentiation protocol for these cells was established in a 384-well format. All transfer steps are fully automated using high throughput robotic equipment. Briefly, cells are seeded in differentiation medium using a Matrix WellMate fitted with the WellMate Stacker (Thermo Scientific) and incubated at 37° C. with 5% CO2 for 48 h. Following differentiation, cells are washed using a BioTek ELx405 Select CW plate washer and growth medium added with the Matrix WellMate. Programmed control treatments are added to wells using a D300 digital dispenser fitted with T8+ dispense heads (Hewlett Packard) designed to dispense nanoliter quantities of material. Compounds from library plates are added using a pin tool fitted to a Sciclone ALH 3000 Workstation (Caliper Life Sciences) programmed with Maestro v4.4. After treatment, plates are returned to incubators for 24 hours. To measure reporter expression, supernatant is collected using the Sciclone and dispensed into 2 plates: 1) a white 384-well assay plate for Lucia luminescence measurements and 2) a clear-bottom black 384-well assay plate for SEAP absorbance measurements. […]

[2] = system: IRF-Lucia luciferase reporter (ISRE) in THP1-Dual cells; assay: THP1-Dual IRF-Lucia luciferase reporter assay (ISRE activation); assay type: cell-based, human; conditions: Homo sapiens, THP1-Dual, Human Reporter Cell Line THP1; read-out: THP1 IRF EC50
Experimental: as §1, §2
The responsiveness of the human THP-1 Dual cell line was evaluated in an array of assay conditions to obtain sensitive and reproducible results for the activation of IRF and NF-κB reporters. […] All transfer steps are fully automated using high throughput robotic equipment. Briefly, cells are seeded in differentiation medium using a Matrix WellMate fitted with the WellMate Stacker (Thermo Scientific) and incubated at 37° C. with 5% CO2 for 48 h. Following differentiation, cells are washed using a BioTek ELx405 Select CW plate washer and growth medium added with the Matrix WellMate. Programmed control treatments are added to wells using a D300 digital dispenser fitted with T8+ dispense heads (Hewlett Packard) designed to dispense nanoliter quantities of material. Compounds from library plates are added using a pin tool fitted to a Sciclone ALH 3000 Workstation (Caliper Life Sciences) programmed with Maestro v4.4. After treatment, plates are returned to incubators for 24 hours. To measure reporter expression, supernatant is collected using the Sciclone and dispensed into 2 plates: 1) a white 384-well assay plate for Lucia luminescence measurements and 2) a clear-bottom black 384-well assay plate for SEAP absorbance measurements.

[3] = THP1-Dual cytotoxicity (Cell Titer Glo, ATP); assay type: cell-based, human; conditions: human, THP1-Dual cells, read-out: Thp1 cytotox CC50
In short: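 CC50, the concentration killing half the cells, was derived from ATP-dependent CellTiter-Glo luminescence. Cells were THP1-Dual (human) and compound was tested as an 8-point dose-response series, with viability read in the same plate.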

[4] = system: IRF-Lucia luciferase reporter (ISRE) in J774-Dual cells; assay: J774-Dual IRF-Lucia luciferase reporter assay (ISRE activation); assay type: cell-based, mouse; conditions: for J774 IRF % activation at peak: Mouse Reporter Cell Line J774; for EC50: Mus musculus, J774, Mouse Reporter Cell Line J774, read-out: J774 IRF EC50
Experimental: First, optimal assay conditions and assay quality in 384-well format were determined. As mentioned, the mouse macrophage J774 cell line (J774-Dual, InvivoGen) stably transfected with the same inducible reporters described above (e.g., IRF-Lucia luciferase and NF-κB-SEAP) was used. The responsiveness of the J774-Dual cell line was investigated in an array of assay conditions to obtain sensitive and reproducible results for the activation of the IRF and NF-κB reporters. An optimal plating density and conditions for these cells was established for these cells in a 384-well format. Assay work-flow is similar to that discussed above for the THP1-Dual assay without a need for cell differentiation. Thus, cells are seeded directly in growth medium and incubated at 37° C. in a 5% C02 incubator for 24 hours prior to the programmed treatments being added as described herein.
The primary high throughput screen used the HTS platform of human THP1 monocyte cells containing the IRF-Lucia luciferase and NFκB-SEAP (secreted embryonic alkaline phosphatase) dual reporter (THP1-Dual, Invivogen), enabling the simultaneous study of the IRF and NFκB signaling pathways respectively. As discussed, the Lucia luciferase reporter gene is under the control of an ISG54 (interferon-stimulated gene) minimal promoter in conjunction with five interferon-stimulated response elements (ISRE). The SEAP gene is driven by an IFNβ minimal promoter fused to five copies of the NFκB consensus transcriptional response element and three copies of the c-Rel binding site. Both IRF-Lucia luciferase and NFκB-SEAP reporter proteins are secreted and readily measurable in the cell culture supernatant when using QUANTI-Luc™ and QUANTI-Blue™ detection reagents, respectively. Identified “hits” were confirmed in a secondary screen with an 8-point dose response curve. Hits were further screened for activity in the mouse using the mouse J774 macrophage-like cell line containing the identical reporter constructs (J774-Dual, Invivogen).
The OTRADI Small Molecule Library of approximately 246,000 diverse compounds (see below for description) was screened using the THP1-Dual based HTS platform described above. All transfer steps in the screen are fully automated, thus reducing variability. Primary screening included a single data point or dose for each molecule. After data normalization was applied for each assay run, “hit” selection was performed on the plates that pass the quality control (QC) criterion. Hits were defined as samples having values above the activity cutoff determined based on noise level of the assay to reduce false positive rates. In the pilot study discussed above this activity value was >3σ above the ISRE mean with the added criteria of NFκB activation being lower than […] from the mean to identify IRF selective compounds. The ratio of ISRE:NFκB activity was also calculated as a selectivity index for prioritizing hit selection. Primary hits underwent secondary screening to determine the 50% effective concentration (EC50) and 50% cytotoxic concentration (CC50) of these agents using an 8-point dose-response curve in the human THP1-Dual cells. Cytotoxicity was measured in the plate using Cell Titer Glo (Promega). Identified candidate compounds were further screened (orthogonal screen) for cross species activity in the validated mouse J774-Dual assay using an 8-point dose-response format to determine EC50 and CC50 values as well as ISRE:NFκB ratios. A general process flow for the experimental design laid out above is depicted at FIG. 12.

J774-Dual cytotoxicity = assay type: cell-based, mouse; conditions: mouse, J774-Dual cells, read-out: J774 cytotox CC50
In short: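 CC50 derived from 8-point concentration series in mouse J774-Dual reporter cells, with viability read by CellTiter-Glo in the same plate. Run in parallel with EC50 and ISRE:NFκB ratio determination for cross-species confirmation.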

[5] = Human Reporter Cell Line, 8-point dose response

SMILES: Cc1ccc(C(=O)Nc2cc(-c3nc4ccccc4s3)ccc2C)c(C)c1 [ND-104]
EC50 ([1]; Human Reporter Cell Line THP1): 12.2 µM

EC50 [2]: 2.63 µM | EC50 [4]: 4.5 µM
SMILES: COc1ccc(C(=O)Nc2cc(-c3nc4cc(Cl)ccc4o3)ccc2C)cc1[N+](=O)[O-] [ND-40]
CC50 ([3]; Human Reporter Cell Line THP1): 16.1 µM | J774 IRF % activation at peak [4]: 119.6% | CC50 (J774-Dual cytotoxicity; Mouse Reporter Cell Line J774): > 25 µM

EC50 [2]: 8.49 µM
SMILES: Cc1cc2nc(-c3ccc(C)c(NC(=O)c4ccc([N+](=O)[O-])cc4)c3)oc2cc1C [ND-71]
EC50 ([1]; Human Reporter Cell Line THP1): 6.94 µM | CC50 ([3]; Human Reporter Cell Line THP1): > 25 µM | CC50 (J774-Dual cytotoxicity; Mouse Reporter Cell Line J774): > 25 µM

SMILES: COc1ccc(C(=O)Nc2cc(-c3nc4ccccc4s3)ccc2C)cc1Br [ND-68]
EC50 ([1]; Human Reporter Cell Line THP1): ~9.75 µM | CC50 ([3]; Human Reporter Cell Line THP1): > 25 µM | CC50 (J774-Dual cytotoxicity; Mouse Reporter Cell Line J774): > 25 µM

EC50 [2]: 11.9 µM | EC50 [4]: ~7.27 µM
SMILES: Cc1cc(C)c2c(N)c(C(=O)Nc3ccc4ccccc4c3)sc2n1 [ND-6]
CC50 ([3]; Human Reporter Cell Line THP1): 49.8 µM | J774 IRF % activation at peak [4]: 18.79% | CC50 (J774-Dual cytotoxicity; Mouse Reporter Cell Line J774): > 25 µM

SMILES: O=C(Nc1ccc(N2CCN(C(=O)c3cccs3)CC2)cc1)c1ccc2c(c1)OCCO2 [NA-28]
EC50 [1, 5]: 3.02 µM | CC50 ([3]; Human Reporter Cell Line): > 25 µM | CC50 (J774-Dual cytotoxicity; Mouse Reporter Cell Line): > 25 µM

SMILES: CC(Oc1ccc(C(=O)Nc2ccc(N3CCN(C(=O)c4cccs4)CC3)cc2)cc1)c1ccccc1 (stereo not drawn) [NA-22]
EC50 [1, 5]: ~2.62 µM | CC50 ([3]; Human Reporter Cell Line): > 25 µM | CC50 (J774-Dual cytotoxicity; Mouse Reporter Cell Line): > 25 µM

SMILES: Cc1ccc(C(=O)Nc2ccc(O)c(-c3nc4ccccc4s3)c2)cc1[N+](=O)[O-] [ND-63]
EC50 ([1]; Human Reporter Cell Line THP1): ~3.2 µM | CC50 ([3]; Human Reporter Cell Line THP1): 27.4 µM | CC50 (J774-Dual cytotoxicity; Mouse Reporter Cell Line J774): > 25 µM

SMILES: Cc1ccc(-c2nc3ccccc3s2)cc1NC(=O)c1ccc(C(F)(F)F)c([N+](=O)[O-])c1 [ND-79]
EC50 ([1]; Human Reporter Cell Line THP1): ~11.3 µM | CC50 ([3]; Human Reporter Cell Line THP1): > 25 µM | CC50 (J774-Dual cytotoxicity; Mouse Reporter Cell Line J774): > 25 µM

SMILES: Cc1cc2nc(-c3ccc(C)c(NC(=O)c4ccc(OCc5ccccc5)cc4)c3)oc2cc1C [ND-105]
EC50 ([1]; Human Reporter Cell Line THP1): 2.19 µM | CC50 ([3]; Human Reporter Cell Line THP1): > 10 µM | CC50 (J774-Dual cytotoxicity; Mouse Reporter Cell Line J774): > 10 µM

SMILES: COc1c(Cl)cc(C(=O)Nc2cc(-c3nc4cc(Cl)ccc4o3)ccc2C)cc1Cl [ND-101]
EC50 ([1]; Human Reporter Cell Line THP1): ~3.75 µM | CC50 ([3]; Human Reporter Cell Line THP1): > 25 µM | CC50 (J774-Dual cytotoxicity; Mouse Reporter Cell Line J774): > 25 µM
